Tests used:
[1] = tested on: carrageenan paw inflammation; experiment: mouse carrageenan paw inflammation (paw edema) model; assay type: in vivo; conditions: 3 hours; p.o. gavage; curcumin 30 mg/kg, CDC 30 mg/kg, indomethacin 5 mg/kg; male CD-1 mice
[2] = in vivo; cited from earlier work

| Compound | swelling (edema: left paw thickness minus right paw thickness) [1] [mm] | Tmax [2] [min] |
| --- | --- | --- |
| COc1cc(/C=C/C(=O)CC(=O)/C=C/c2ccc(O)c(OC)c2)ccc1O [curcumin, Curcumin] | 0.66 | 3 to 5 |
| COc1ccc2c(c1)c(CC(=O)O)c(C)n2C(=O)c1ccc(Cl)cc1 [indomethacin, Indomethacin] | 0.73 | – |
